Data: PubChem BioAssay AID2305 (GlaxoSmithKline (GSK), 2010)
“And” between values parts separate entries of the source, which are not always exact repeats. Equal values may be shown once.

The compounds below were run on P. falciparum 3D7 growth, pLDH absorbance (assay: P. falciparum 3D7 growth inhibition, dose response, strain 3D7 (AID 2305)).

SMILES | IC50
O=C(/C=C/c1ccc(Cl)c(Cl)c1)NCCCCCN1CCC(NC(=O)c2cc(Cl)ccc2F)CC1 | 1160 nM
O=C(NCC1CCN(CC2CCCCC2)C1)c1cc(-c2cccc(Cl)c2)cs1 (configuration not stated) | 1090 nM
COc1ccc2nccc([C@@H](O)CN3CCC(NCc4cc5c(cc4F)SCC(=O)N5)CC3)c2n1 | 1000 nM
COc1ccc(NC(=O)[C@H](CC(C)C)Nc2ccnc(NCCc3ccc(F)cc3)n2)cc1 | 1600 nM
c1ccc(-c2cc(NCCCCCCCCNc3cc(-c4ccccc4)nc4ccccc34)c3ccccc3n2)cc1 | 390 nM
COc1ccc2nccc(N3CCN(CCNCc4ccc5c(n4)NC(=O)CS5)CC3)c2n1 | 840 nM
CCNc1cc(C(=O)N[C@@H](Cc2ccccc2)[C@H](O)CNCCc2cccc3ccccc23)cc(N2CCCC2=O)c1 | 980 nM
Cc1noc(C)c1-c1ccc2c(Nc3ccccc3C(C)(C)C)c(C(=O)NCc3ccc(OC(C)C)cc3)cnc2c1 | 910 nM
CN1CCc2cc(Br)c(O)cc2C1Cc1ccccc1Cl (configuration not stated) | 670 nM
CC(CO)(CO)NCc1cc2c3ccccc3c(CNC(C)(CO)CO)cc2c2ccccc12 | 720 nM
c1cc(CN2CCC(CCN3CCCCC3)CC2)cc(-c2cccc(-c3nc4ccccc4[nH]3)c2)c1 | 140 nM
COc1ccc(S(=O)(=O)NC2CCN(c3cc(C)nc(Nc4cccc(C#N)c4)n3)CC2)cc1 | 950 nM
Oc1cc(Nc2ccnc3cc(-c4ccc(CN5CCCCC5)o4)c(Cl)cc23)c(Cl)cc1F | 1260 nM
O=C(N[C@@H]1C[C@H]1c1ccccc1)N(CCCn1ccnc1)Cc1csc(-c2ccc(CNCc3ccccc3)cc2)n1 | 850 nM
COc1ccc(Cl)cc1N1CCN(CCCNC(=O)c2ccc(-c3nc4ccncc4[nH]3)c(Br)c2)CC1 | 1150 nM
CC(Cc1ccc(C2=CCNCC2)cc1)NCC(O)c1cccc(C(F)(F)F)c1 (configuration not stated) | 1570 nM
c1ccc(Oc2ccc(Nc3nc(NCCc4cnc[nH]4)nc(NC4CCCC4)n3)cc2)cc1 | 1030 nM
Cc1cccc2[nH]c(-c3ccc(-c4cccc(CN5CCC(N)C5)c4)s3)nc12 (configuration not stated) | 770 nM
Cc1cc(-c2ncc[nH]2)ccc1-c1ccc(C(=O)N2CCc3cc4c(cc32)C2(CCN(C)CC2)CO4)cc1 | 800 nM
COc1cccc(-c2cc(C(F)(F)F)n3ncc(C(=O)Nc4cc(C)ccc4O)c3n2)c1 | 160 nM
COc1cccc(NC(=O)c2cc(C(=O)Nc3cccc(OC)c3)cc([N+](=O)[O-])c2)c1 | 660 nM
S=C(Nc1ccc2c(c1)OCCO2)NC1CCC(CN2CCC(c3c[nH]c4ccccc34)CC2)CC1 (configuration not stated) | 650 nM and 1000 nM
CC(=O)N(C)c1cccc(C(=O)Nc2cccc(-c3cccc(-c4nc5c(C)cccc5[nH]4)c3)c2)c1 | 620 nM

SMILES | IC50
Cc1[nH]c(C)c(-c2ccc(OCCn3cnc(Cl)c3Cl)cc2)c(=O)c1Br | 850 nM
COc1ccc(OC)c(C(O)CNC(C)C)c1 (configuration not stated) | 60 nM
Nc1nc(F)nc2nc[nH]c12 | 430 nM
O=C(Nc1ccc(C(F)(F)F)cc1)c1ccc(S(=O)(=O)NC2CCN(Cc3ccccc3)C2)cc1 (configuration not stated) | 620 nM
Cc1cccc2[nH]c(-c3cccc(-c4ccc(CNCCNC(=O)c5ccnn5C)cc4)c3)nc12 | 170 nM
O=C(N[C@H]1CCN(CCc2ccc(O[C@H]3CCNC3)cc2)C1)c1ccc(Cl)c(Cl)c1 | 830 nM
COc1ccc2nccc([C@@H](O)CN3CCC(NCc4cc5cccc(O)c5c(=O)[nH]4)CC3)c2c1 | 390 nM
Fc1ccc(Nc2ccnc3cc(-c4ccc(CNCCN5CCOCC5)o4)ccc23)c(Cl)c1 | 190 nM
Cc1noc(C)c1-c1cccc(CNCc2ccc(-c3cccc(-c4nc5ccccc5[nH]4)c3)cc2)c1 | 570 nM
NC(=O)c1ccsc1NC(=O)CNC(c1ccccc1)c1ccccc1 | 940 nM
O=C(CC1NC(=O)c2ccccc21)Nc1ccc(-c2cccc(-c3nc4ccc(C(F)(F)F)cc4[nH]3)c2)cc1 (configuration not stated) | 960 nM
O=C(/C=C/c1ccc(Cl)c(Cl)c1)NCc1ccc(CN2CCC(c3c[nH]c4ccccc34)CC2)cc1 | 710 nM
N#Cc1ccc2c(c1)CCN(CCC1CCC(NC(=O)/C=C/c3c[nH]c4ccc(F)cc34)CC1)CC2 (configuration not stated) | 690 nM
COc1ccc(CN2CCC(N3CCc4cc(NC(=O)c5cc(C)on5)ccc43)C2)cc1Cl (configuration not stated) | 940 nM
Cc1nc(NCc2ccccc2)cc(Nc2cc(NCc3ccccc3)nc(C)n2)n1 | 970 nM
CC(C)(C)CC(=O)Nc1ccc(Nc2cc(-c3ccncc3)cc3ncc(C(N)=O)cc23)cc1 | 700 nM
CN1CCC(OC(=O)c2cc3cc(-c4ccccc4)ccc3n2S(=O)(=O)c2ccccc2)CC1 | 1090 nM
Cc1c(C)c2c(c(C)c1O)CC[C@@](C)(C(=O)N1CCC(CCN3CCC(c4c[nH]c5ccccc45)CC3)CC1)O2 | 670 nM
COc1ccc2c(NCCc3ccccc3)cc(-c3ccccc3)nc2c1 | 990 nM
O=C(Cn1c(CCc2cccc(F)c2F)cc(=O)c2cccnc21)N(CCCn1ccnc1)Cc1ccc(-c2ccc(C(F)(F)F)cc2)cc1 | 800 nM
O=C(c1ccc([N+](=O)[O-])o1)N1CCN(c2nc3c(F)cc(F)cc3s2)CC1 | 970 nM
C(=N\Nc1nccc2sc(-c3ccccc3)cc12)/c1cccnc1 | 820 nM
O=C(c1cccs1)N1CCN(c2ccc([N+](=O)[O-])c(NC3CC3)c2)CC1 | 770 nM

SMILES | IC50
O=C(/C=C/c1ccc(Cl)c(Cl)c1)NCCCCCN1CC[C@H](c2c[nH]c3ccccc23)[C@H](O)C1 | 820 nM
COc1ccc(N2CCN(CCCCNC(=O)c3ccc(NC(=O)c4ccc(Cl)cc4)cc3)CC2)c(OC)c1 | 950 nM
O=C(Nc1cc(Cl)ccc1Cl)N[C@H]1CCN(CCCCCNC(=O)[C@@H]2C[C@H]2c2ccc(Cl)c(Cl)c2)C1 | 770 nM
CCC1CN2CCc3c([nH]c4ccccc34)[C@@H]2C[C@@H]1CC1NCCc2cc(OC)c(OC)cc21 (some centres not stated) | 860 nM and 840 nM
N#Cc1ccc(CN2CCCN(Cc3cccc(NC(=O)c4cc5ccccc5s4)c3)CC2)cc1 | 910 nM
CC(=O)Nc1ccc(CN2CCC(CNC(=O)c3cc(-c4cccc(C(F)(F)F)c4)cs3)C2)cc1 (configuration not stated) | 1100 nM
COC(=O)c1cccc(NC(=O)NC2CCN(c3ccnc(Nc4ccc(F)cc4)n3)C2)c1 (configuration not stated) | 500 nM
COc1ccc2nccc([C@@H](O)CN3CCC(NCc4ccc5nnsc5c4)CC3)c2c1 | 710 nM
CCCCCCCN(Cc1ccc(OC(C)(C)C(=O)OCC)cc1)C(=O)Nc1ccccc1OC(F)(F)F | 970 nM
O=C(NC1CCN(Cc2ccccc2)CC1)c1cc(-c2ccncc2)c(-c2ccc(Cl)c(O)c2)o1 | 410 nM
COC(=O)c1ccc(CC(C)NCC(O)c2cccc(OC(F)(F)F)c2)cc1 (configuration not stated) | 860 nM
CS(=O)(=O)c1cccc(-c2cnc(N)c3cc(-c4cccc(F)c4)ccc23)c1 | 860 nM
O=C(NC1CCN(c2ccnc(Nc3ccc(F)cc3)n2)C1)c1cc2ccccc2s1 (configuration not stated) | 720 nM
Cc1cc(C(=O)NC2CCN(CC3(c4ccccc4)CCCCC3)CC2)on1 | 260 nM
c1ccc2c(Nc3ccc(Oc4ccc(Nc5c6ccccc6nc6ccccc56)cc4)cc3)c3ccccc3nc2c1 | 520 nM
CCCCCCCCN1CCCN(C(=O)c2cccc(NC(=O)Nc3ccc4ccccc4c3)c2)CC1 | 760 nM
Cc1ccc(S(=O)(=O)N(CCCNCc2cccc(O)c2)c2ccccc2)cc1 | 770 nM
CCCCNc1nc(NCCCC)c2c(C)c(Cc3ccccc3)c(NCCCC)nc2n1 | 890 nM
Cc1cc(F)ccc1N(c1nc(-c2cc(Cl)ccc2Cl)cs1)C1CCNC1 (configuration not stated) | 1010 nM
CO/C(=C\C=C\c1cc2cc(Cl)c(Cl)cc2[nH]1)C(=O)NCCCNC12CC3CC(CC(C3)C1)C2 | 730 nM
O=C(Nc1ccc(Cn2ncc(N3CCCNCC3)c(Cl)c2=O)cc1)Nc1ccc(OCc2ccccc2)cc1 | 820 nM
